{"source": "patent EP3650451A1", "about": "“COMPOUNDS AND THEIR USES AS FLUORESCENT PROBES” (Consejo Superior de Investigaciones Cientificas, priority 2017, dated 2019)", "key": {"[1]": {"experiment": "Stability in water: time evolution in D2O followed by 1H NMR (hydrolysis)", "type": "physicochemical", "conditions": "15 mM solution in D2O at 25 °C, read-out: t1/2 (hydrolysis) (converted)", "protocol": "One of the critical factors that conditions the viability and applicability of functional dyes 3 and 4 as fluorescent mitochondrial probes is their stability in water, since these compounds contain two potentially labile B-O bonds linking the fluorophore with the carnitine substituent. This stability was determined analyzing the time evolution of 3 and 4 in a 15 mM solution in D2O at 25 °C using ^1H NMR. This technique makes it possible not only to define their stability, but also to identify the possible degradation products (Diagram 2). Both probes are hydrolyzed, generating free carnitine and the corresponding 4,4-dihydroxy-BODIPY derivatives 5 and 6. [drawing 8]\nCompound 3 is quickly hydrolyzed (t1/2 = 10 min); however, the greater substitution of the tetramethylated derivative in 4 gives it greater stability (t1/2 = 6 h), which promotes its use as a fluorescent marker in live cells. Contrary to what might be believed, the generation of free carnitine and of the corresponding BODIPY derivatives 5 and 6 at physiological pH is, indeed, an advantage for its application in cell labels. Thus, (R)-carnitine is incorporated into the mitochondrial metabolism, while the boron of the hydrolyzed BODIPY can covalently bond to poly-hydroxilated molecules (for example, saccharides and glycoproteins), generating cyclic boronic esters. […]"}, "HeLa": {"test_system": "HeLa", "experiment": "Kinetics of cell labeling by flow cytometry", "type": "cell-based, human", "conditions": "50 nM, staining times 5, 15 and 30 min", "protocol": "(§1) The cell assays were carried out on two human cell lines: SCC38 and HeLa. The SCC38 line is derived from human laryngeal epidermoid carcinoma patients, while HeLa, the first human cell line established in culture, is derived from cervical cancer. The culture medium used for both cell lines was DMEM (Dulbecco's Modified Eagle's Medium) supplemented with 10% of fetal bovine serum (FBS), 100 U/mL of penicillin, 200 µg/mL of streptomycin, 100 µmol/L of non-essential amino acids and 2 mmol/L of glutamine. The cultures were incubated at 37 °C and 5% of CO2.\n(§2) The kinetics of cell labeling with 4 was studied by flow cytometry with the SCC38 and HeLa cell lines, using MitoTracker® Red as a control marker, both at a concentration of 50 nM. The staining times studied were 5, 15, 30 and 45 minutes. After staining, the medium was removed, washed with PBS, trypsinized and the pellet was resuspended in 500 µL of PBS and introduced in the cytometer after filtration. A Beckman Coulter Cytomics FC500 Flow Cytometry Analyzer was used (Scientific-Technical Services, Universidad de Oviedo). Part of the resuspended cells were also plated and observed under the microscope."}, "SCC38": {"test_system": "SCC38", "experiment": "Kinetics of cell labeling by flow cytometry", "type": "cell-based, human", "protocol": "as §1, §2"}, "SCC38 cells": {"test_system": "SCC38 cells", "experiment": "Labeling in the presence of FCCP (depolarized mitochondrial membrane), flow cytometry", "type": "cell-based, human", "protocol": "• Fig. 1. In vivo labeling of SCC38 cells with compound 4 at different concentrations (50, 100 and 500 nM). Scale bar: 10 µm • Fig. 2. Flow cytometry studies in SCC38 and HeLa cell lines labeled with compound 4 and Mito Tracker® Red. Histograms wherein fluorescence intensity vs number of events is represented for each of the staining times (5, 15 and 30 min) and control (Ctrl), for the SCC38 and HeLa cells and for each of the two markers. • Fig. 3. Absorption (A) and fluorescence (B) spectra, normalized to molar absorption and fluorescence quantum yield of probe 4 in different solvents; chloroform (green), acetone (black), acetonitrile (red), ethanol (blue) and water (gray). • Fig. 4. […] (A) Flow cytometry analysis of SCC38 cells incubated in the presence (+FCCP) or absence (-FCCP) of FCCP 60 µM for 3 h before staining with 20 nM of 4 or 0.5 nm of MitoTracker. The data represent the mean fluorescence intensity (MFI) of the stained cells. (B) Microscopy analysis of SCC38 cells pretreated or not with FCCP before co-staining with 20 nM of 4 and 0.5 nm of MitoTracker. The graphs show the fluorescence profiles of the regions of interest indicated with white lines in the right-hand panels. Scale bars: 10 µm). • Fig. 5. […] The data represent the mean fluorescence intensity (MFI) of the stained cells (upper panels) and representative images of the cytometry profiles (lower panels). • Fig. 7. […] (B) The data represent the mean fluorescence intensity (MFI) of the labeled cells.\nThe labeling was analyzed by flow cytometry in the presence of carbonyl cyanide-p-(trifluoromethoxy)phenylhydrazone (FCCP), a protonophore used to reduce the mitochondrial membrane potential (ΔΨm) through depolarization of the mitochondrial membrane. […] Indeed, the suppression of dye-mitochondria electrostatic attraction as a passive labeling mechanism reduces the concentration of the dye in the cell organelle and, thus, the probability and extent of the fluorescence deactivation processes, with the ensuing increase in their efficiency. […]"}}, "data": [{"smiles": "CC1=CC(C)=[N+]2C1=C(c1c(C)cc(C)cc1C)c1c(C)cc(C)n1[B-]21OC(=O)C[C@H](C[N+](C)(C)C)O1", "note": "(stereo partly drawn) [Compound 4]", "values": [{"measurement": "half-life at 15000 µM", "setting": "[1]", "result": 6, "unit": "h"}, {"measurement": "change of staining intensity with incubation time", "setting": "HeLa", "result": "clearly increased in intensity with incubation time"}, {"measurement": "change of staining intensity with incubation time", "setting": "SCC38; SCC38, 50 nM, staining times 5, 15 and 30 min", "result": "clearly increased in intensity with incubation time"}, {"measurement": "labeling intensity at longer staining time", "setting": "SCC38; new cytometry experiment, 45 min versus 30 min, cell line not stated", "result": "even more intense than with a time of 30 minutes"}, {"measurement": "labeling of depolarized mitochondria", "setting": "SCC38 cells; 60 µM FCCP for 3 h at 37 °C", "result": "capable of labeling depolarized mitochondria"}, {"measurement": "mitochondrial fluorescence of cells treated with FCCP", "setting": "SCC38 cells; 60 µM FCCP for 3 h at 37 °C before staining, 20 nM of 4 or 0.5 nM of MitoTracker", "result": "increase in fluorescence"}]}]}
